# System: β-catenin-TCF-mediated reporter transcription activity in Colo 205 cells
# Assay: Colo 205 reporter assay (TCF/LEF luciferase)
# Assay type: cell-based
# Details: Colo 205 TCF/LEF luciferase reporter, five hours after addition of compound; read-out: TCF reporter Colo205 IC50
# In short: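 Luciferase signal from a TCF/LEF-driven reporter, stably integrated in Colo 205 colon cancer cells, was measured 5 h after compound addition.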
row,IC50 [nM],Compound
1,< 300,"CC[C@H]1C(=O)Nc2c(C)nc(NCc3cnn(Cc4ccc(OC(F)F)nc4)c3)nc2N1C [Compound 417, (7S)-2-(((1-((6-(difluoromethoxy)pyridin-3-yl)methyl)-1H-pyrazol-4-yl)methyl)amino)-7-ethyl-4,8-dimethyl-7,8-dihydropteridin-6(511)-one]"

# Same assay, conditions: Homo sapiens, 5 h; Colo 205 TCF/LEF luciferase reporter, five hours after addition of compound; read-out: TCF reporter Colo205 IC50
row,Compound,IC50 [nM]
1,"Cc1nc(N[C@H]2C[C@@H](NC(=O)Oc3ccc(F)cc3)C2)nc2c1NC(=O)[C@H](C)N2C [Compound 464, 4-fluorophenyl (cis-3-(((S)-4,7,8-trimethyl-6-oxo-5,6,7,8-tetrahydropteridin-2-yl)amino)cyclobutyl)carbamate]",300 to 1000
2,"Cc1nc(N[C@H]2C[C@H](NC(=O)Oc3ccc(F)cc3)C2)nc2c1NC(=O)[C@H](C)N2C [Compound 465, 4-fluorophenyl (trans-3-(((S)-4,7,8-trimethyl-6-oxo-5,6,7,8-tetrahydropteridin-2-yl)amino)cyclobutyl)carbamate]",300 to 1000

# Same assay, conditions: Homo sapiens, COLO 205, 5 h, Colo 205 TCF/LEF luciferase reporter, five hours after addition of compound; read-out: TCF reporter Colo205 IC50
row,IC50 [nM],Compound
1,< 300,"Cc1nc(NCc2cnn(Cc3ccc(OC(F)F)nc3)c2)nc2c1NC(=O)[C@H](C(C)C)N2C [Compound 422, (7S)-2-(((1-((6-(difluoromethoxy)pyridin-3-yl)methyl)-1H-pyrazol-4-yl)methyl)amino)-7-isopropyl-4,8-dimethyl-7,8-dihydropteridin-6(5H)-one]"
2,< 300,"CC[C@H]1C(=O)Nc2c(C)nc(NCc3cnn(Cc4cnc(Cl)c(F)c4)c3)nc2N1C [Compound 426, (7S)-2-(((1-((6-chloro-5-fluoropyridin-3-yl)methyl)-1H-pyrazol-4-yl)methyl)amino)-7-ethyl-4,8-dimethyl-7,8-dihydropteridin-6(5H)-one]"
3,< 300,"COc1ccc(Cn2cc(CNc3nc(C)c4c(n3)N(C)[C@@H](C(C)C)C(=O)N4)cn2)cn1 [Compound 429, (7S)-7-isopropyl-2-(((1-((6-methoxypyridin-3-yl)methyl)-1H-pyrazol-4-yl)methyl)amino)-4,8-dimethyl-7,8-dihydropteridin-6(5H)-one]"
4,< 300,"CC[C@H]1C(=O)Nc2c(C)nc(NCc3cnn(Cc4ccc(Cl)nc4)c3)nc2N1C [Compound 432, (7S)-2-(((1-((6-chloropyridin-3-yl)methyl)-1H-pyrazol-4-yl)methyl)amino)-7-ethyl-4,8-dimethyl-7,8-dihydropteridin-6(5H)-one]"
5,< 300,"CC[C@H]1C(=O)Nc2c(C)nc(NCc3cnn(Cc4ccc(OCC(F)(F)F)nc4)c3)nc2N1C [Compound 433, (7S)-7-ethyl-4,8-dimethyl-2-(((1-((6-(2,2,2-trifluoroethoxy)pyridin-3-yl)methyl)-1H-pyrazol-4-yl)methyl)amino)-7,8-dihydropteridin-6(5H)-one]"
6,< 300,"Cc1nc(NCc2cnn(Cc3ccc(OCC(F)(F)F)nc3)c2)nc2c1NC(=O)[C@H](C1CC1)N2C [Compound 435, (7S)-7-cyclopropyl-4,8-dimethyl-2-(((1-((6-(2,2,2-trifluoroethoxy)pyridin-3-yl)methyl)-1H-pyrazol-4-yl)methyl)amino)-7,8-dihydropteridin-6(5H)-one]"
7,< 300,"Cc1nc(NCc2cnn(Cc3ccc(Cl)nc3)c2)nc2c1NC(=O)[C@H](C(C)(C)C)N2C [Compound 438, (7S)-7-(tert-butyl)-2-(((1-((6-chloropyridin-3-yl)methyl)-1H-pyrazol-4-yl)methyl)amino)-4,8-dimethyl-7,8-dihydropteridin-6(5H)-one]"
8,≥ 5000,"Cc1nc(NCc2cnn(Cc3ccc(C(F)(F)F)nc3)c2)nc2c1NC(=O)[C@H](CCO)N2 [Compound 439, (S)-7-(2-hydroxyethyl)-4-methyl-2-(((1-((6-(trifluoromethyl)pyridin-3-yl)methyl)-1H-pyrazol-4-yl)methyl)amino)-7,8-dihydropteridin-6(5H)-one]"
9,< 300,"Cc1nc(NCc2cnn(Cc3ccc(C4CC4)nc3)c2)nc2c1NC(=O)[C@H](C1CC1)N2C [Compound 441, (7S)-7-cyclopropyl-2-(((1-((6-cyclopropylpyridin-3-yl)methyl)-1H-pyrazol-4-yl)methyl)amino)-4,8-dimethyl-7,8-dihydropteridin-6(5H)-one]"
10,< 300,"Cc1nc(NCc2cnn(Cc3ccc(C4CC4)nc3)c2)nc2c1NC(=O)[C@H](C(C)C)N2C [Compound 442, (7S)-2-(((1-((6-cyclopropylpyridin-3-yl)methyl)-1H-pyrazol-4-yl)methyl)amino)-7-isopropyl-4,8-dimethyl-7,8-dihydropteridin-6(5H)-one]"
11,300 to 1000,"Cc1nc(NCc2cnn(CCc3ccc(C(F)(F)F)nc3)c2)nc2c1NC(=O)[C@H](C)N2C [Compound 444, (7S)-4,7,8-trimethyl-2-(((1-(2-(6-(trifluoromethyl)pyridin-3-yl)ethyl)-1H-pyrazol-4-yl)methyl)amino)-7,8-dihydropteridin-6(5H)-one]"
12,< 300,"Cc1nc(NCc2cnn(Cc3ccnc(Cl)c3)c2)nc2c1NC(=O)[C@H](C(C)C)N2C [Compound 446, (7S)-2-(((1-((2-chloropyridin-4-yl)methyl)-1H-pyrazol-4-yl)methyl)amino)-7-isopropyl-4,8-dimethyl-7,8-dihydropteridin-6(5H)-one]"
13,< 300,"Cc1nc(NCc2cnn(Cc3ccnc(N(C)C)c3)c2)nc2c1NC(=O)[C@H](C(C)C)N2C [Compound 448, (S)-2-(((1-((2-(dimethylamino)pyridin-4-yl)methyl)-1H-pyrazol-4-yl)methyl)amino)-7-isopropyl-4,8-dimethyl-7,8-dihydropteridin-6(5H)-one]"
14,< 300,"COc1c(F)cc(Cn2cc(CNc3nc(C)c4c(n3)N(C)[C@@H](C(C)C)C(=O)N4)nn2)cc1F [Compound 451, (S)-2-(((1-(3,5-difluoro-4-methoxybenzyl)-1H-1,2,3-triazol-4-yl)methyl)amino)-7-isopropyl-4,8-dimethyl-7,8-dihydropteridin-6(5H)-one]"
15,< 300,"Cc1nc(NCc2cn(Cc3cc(F)c(F)c(F)c3)nn2)nc2c1NC(=O)[C@H](C(C)C)N2C [Compound 452, (S)-7-isopropyl-4,8-dimethyl-2-(((1-(3,4,5-trifluorobenzyl)-1H-1,2,3-triazol-4-yl)methyl)amino)-7,8-dihydropteridin-6(5H)-one]"
16,< 300,"Cc1nc(NCc2cc(C)n(-c3ccc(C(F)(F)F)cc3)c2C)nc2c1NC(=O)[C@H](C(C)C)N2C [Compound 453, (S)-2-(((2,5-dimethyl-1-(4-(trifluoromethyl)phenyl)-1H-pyrrol-3-yl)methyl)amino)-7-isopropyl-4,8-dimethyl-7,8-dihydropteridin-6(5H)-one]"
17,< 300,"Cc1nc(NCc2cnn(Cc3ccc(F)cn3)c2)nc2c1NC(=O)[C@H](C(C)C)N2C [Compound 454, (S)-2-(((1-((5-fluoropyridin-2-yl)methyl)-1H-pyrazol-4-yl)methyl)amino)-7-isopropyl-4,8-dimethyl-7,8-dihydropteridin-6(5H)-one]"
18,< 300,"Cc1nc(NCc2cnn(Cc3cc(F)c(F)c(F)c3)c2)nc2c1NC(=O)[C@H](C1CC1)N2C [Compound 456, (S)-7-cyclopropyl-4,8-dimethyl-2-(((1-(3,4,5-trifluorobenzyl)-1H-pyrazol-4-yl)methyl)amino)-7,8-dihydropteridin-6(5H)-one]"
19,< 300,"COc1c(F)cc(Cn2cc(CNc3nc(C)c4c(n3)N(C)[C@@H](C3CC3)C(=O)N4)cn2)cc1F [Compound 457, (S)-7-cyclopropyl-2-(((1-(3,5-difluoro-4-methoxybenzyl)-1H-pyrazol-4-yl)methyl)amino)-4,8-dimethyl-7,8-dihydropteridin-6(5H)-one]"
20,300 to 1000,"Cc1nc(N[C@H]2C[C@@H](NC(=O)Nc3ccc(F)cc3)C2)nc2c1NC(=O)[C@H](C)N2C [Compound 458, 1-(4-fluorophenyl)-3-(cis-3-(((S)-4,7,8-trimethyl-6-oxo-5,6,7,8-tetrahydropteridin-2-yl)amino)cyclobutyl)urea]"
21,≥ 5000,"Cc1nc(N[C@H]2C[C@H](NC(=O)Nc3ccc(F)cc3)C2)nc2c1NC(=O)[C@H](C)N2C [Compound 459, 1-(4-fluorophenyl)-3-(trans-3-(((S)-4,7,8-trimethyl-6-oxo-5,6,7,8-tetrahydropteridin-2-yl)amino)cyclobutyl)urea]"
22,< 300,"Cc1nc(N[C@H]2C[C@@H](NC(=O)Nc3ccc(F)c(F)c3F)C2)nc2c1NC(=O)[C@H](C)N2C [Compound 460, 1-(2,3,4-trifluorophenyl)-3-(cis-3-(((S)-4,7,8-trimethyl-6-oxo-5,6,7,8-tetrahydropteridin-2-yl)amino)cyclobutyl)urea]"
23,1000 to 5000,"Cc1nc(N[C@H]2C[C@H](NC(=O)Nc3ccc(F)c(F)c3F)C2)nc2c1NC(=O)[C@H](C)N2C [Compound 461, 1-(2,3,4-trifluorophenyl)-3-(trans-3-(((S)-4,7,8-trimethyl-6-oxo-5,6,7,8-tetrahydropteridin-2-yl)amino)cyclobutyl)urea]"
24,1000 to 5000,"Cc1nc(N[C@H]2C[C@@H](NC(=O)Nc3ccc(Cl)nc3)C2)nc2c1NC(=O)[C@H](C)N2C [Compound 462, 1-(6-chloropyridin-3-yl)-3-(cis-3-(((S)-4,7,8-trimethyl-6-oxo-5,6,7,8-tetrahydropteridin-2-yl)amino)cyclobutyl)urea]"
25,≥ 5000,"Cc1nc(N[C@H]2C[C@H](NC(=O)Nc3ccc(Cl)nc3)C2)nc2c1NC(=O)[C@H](C)N2C [Compound 463, 1-(6-chloropyridin-3-yl)-3-(trans-3-(((S)-4,7,8-trimethyl-6-oxo-5,6,7,8-tetrahydropteridin-2-yl)amino)cyclobutyl)urea]"
26,< 300,"Cc1nc(NCc2cnn(Cc3ccc(OC(F)(F)F)cc3)c2)nc2c1NC(=O)[C@H](C(C)C)N2C [Compound 467, (S)-7-isopropyl-4,8-dimethyl-2-(((1-(4-(trifluoromethoxy)benzyl)-1H-pyrazol-4-yl)methyl)amino)-7,8-dihydropteridin-6(5H)-one]"

# From patent US20230312587A1, “PTERIDINONE COMPOUNDS AND USES THEREOF” (Vertex Pharmaceutical Incorporated, priority 2018, published 2023)
